Measured values reported in patent publication US11773078B2, “Furin inhibitors” (Glaxosmithkline Intellectual Property Development Limited, priority 2018, dated 2023).

Key:
[1] = target: T1, furin (endogenous protease) in U20S cells (Homo sapiens, UniProt P09958); assay: Furin cell-based assay (image-based, Golgi-targeted GFP with BMP10 furin/PCSK cleavage site); conditions: 24-hour incubation, read-out: furin golgi cell pXC50 (converted);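 further: Read-out is mean GFP fluorescence of Golgi puncta per cell by high-content imaging, retained when furin inhibited, over an eleven-point 0.00017–10 µM series, four-parameter fit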
T1 construct: the endogenous protease cleaves GFP; endogenous in cells; host or cells: U2OS cells transduced with a BacMam reporter
T1 sequence (P09958 108-794): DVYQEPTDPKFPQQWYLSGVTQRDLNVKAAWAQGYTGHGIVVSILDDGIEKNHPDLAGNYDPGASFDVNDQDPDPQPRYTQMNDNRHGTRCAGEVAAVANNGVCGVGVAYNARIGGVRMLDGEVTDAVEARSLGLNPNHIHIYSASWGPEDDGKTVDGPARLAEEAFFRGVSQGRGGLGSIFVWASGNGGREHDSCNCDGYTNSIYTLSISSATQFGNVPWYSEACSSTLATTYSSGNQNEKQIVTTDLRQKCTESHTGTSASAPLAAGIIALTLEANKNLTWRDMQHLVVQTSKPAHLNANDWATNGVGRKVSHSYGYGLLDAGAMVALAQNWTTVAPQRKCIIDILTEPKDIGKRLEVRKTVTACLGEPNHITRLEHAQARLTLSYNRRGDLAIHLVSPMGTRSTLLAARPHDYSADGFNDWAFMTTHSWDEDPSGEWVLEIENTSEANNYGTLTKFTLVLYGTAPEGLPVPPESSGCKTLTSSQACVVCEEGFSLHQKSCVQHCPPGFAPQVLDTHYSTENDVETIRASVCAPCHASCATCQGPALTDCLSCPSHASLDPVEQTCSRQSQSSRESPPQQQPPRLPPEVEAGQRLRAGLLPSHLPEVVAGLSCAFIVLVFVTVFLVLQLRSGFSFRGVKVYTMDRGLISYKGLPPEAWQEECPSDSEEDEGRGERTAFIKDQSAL

[2] = target: T2, Furin (108-574-Tev-Flag-His) enzyme (Homo sapiens, UniProt P09958); assay: Furin enzyme assay; format: biochemical; conditions: for IC50: read-out: furin enzyme pIC50 (converted)
T2 construct: Furin (108-574-Tev-Flag-His) enzyme was expressed and purified from CHO cells; TEV cleavage site (C); FLAG (C); His (C); made in house; host or cells: CHO cells
T2 sequence (P09958 108-574): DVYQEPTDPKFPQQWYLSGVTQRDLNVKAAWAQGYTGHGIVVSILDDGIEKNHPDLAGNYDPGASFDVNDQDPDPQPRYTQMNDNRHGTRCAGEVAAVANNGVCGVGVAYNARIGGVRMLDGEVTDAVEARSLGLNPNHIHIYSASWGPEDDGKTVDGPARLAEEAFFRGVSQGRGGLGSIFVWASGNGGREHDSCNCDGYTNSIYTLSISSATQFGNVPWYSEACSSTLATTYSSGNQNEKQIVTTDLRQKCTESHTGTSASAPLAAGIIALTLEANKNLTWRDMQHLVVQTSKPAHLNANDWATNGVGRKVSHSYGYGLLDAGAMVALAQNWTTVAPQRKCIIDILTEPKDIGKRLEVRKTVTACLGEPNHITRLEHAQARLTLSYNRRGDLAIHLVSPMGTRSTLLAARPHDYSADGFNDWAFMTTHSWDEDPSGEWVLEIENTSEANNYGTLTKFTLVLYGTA
Summary of the method: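 Compounds ran as 11-point threefold dilutions (0.00017–10 μM final) against 40 pM furin, purified from CHO cells, for 2 h at room temperature. Buffer: 100 mM HEPES pH7.5 with 1 mM CaCl2 and 0.005% Triton X-100. Envision readout. Four-parameter curve gives pXC50.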

EC50 [1] [nM]	furin enzyme pIC50 [2]	IC50 [2] [nM]	Compound
2.51	9.1		CC(=O)NCC1CCN(Cc2cc(Oc3cnc(N4CCN(CCC(C)S(C)(=O)=O)CC4)nc3)nc(-c3cc(Cl)cc(Cl)c3)c2)CC1 (stereo not shown) [Example 214, N-((1-((2-(3,5-dichlorophenyl)-6-((2-(4-(3-(methylsulfonyl)butyl)piperazin-1-yl)pyrimidin-5-yl)oxy)pyridin-4-yl)methyl)piperidin-4-yl)methyl)acetamide]
10		0.398	CC(=O)NCC1CCN(Cc2cc(Oc3cnc(N4CCN(C(C)CCC(=O)O)CC4)nc3)nc(-c3cc(Cl)cc(Cl)c3)c2)CC1 (stereo not shown) [Example 215, 4-(4-(5-((4-((4-(acetamidomethyl)piperidin-1-yl)methyl)-6-(3,5-dichlorophenyl)pyridin-2-yl)oxy)pyrimidin-2-yl)piperazin-1-yl)pentanoic acid]
15.8	10.2		CC(=O)NCC1CCN(Cc2cc(Oc3cnc(N4CCN(C5CC(C(=O)O)C5)CC4)nc3)nc(-c3cc(Cl)cc(Cl)c3)c2)CC1 (stereo not shown) [Example 216, 3-(4-(5-((4-((4-(acetamidomethyl)piperidin-1-yl)methyl)-6-(3,5-dichlorophenyl)pyridin-2-yl)oxy)pyrimidin-2-yl)piperazin-1-yl)cyclobutanecarboxylic acid]
5.01	9.8		COC(=O)NCC1CCN(Cc2cc(Oc3ccc(N4CCN(CCCS(C)(=O)=O)CC4)nc3)nc(-c3cc(Cl)cc(Cl)c3)c2)CC1 [Example 217, methyl ((1-((2-(3,5-dichlorophenyl)-6-((6-(4-(3-(methylsulfonyl)propyl)piperazin-1-yl)pyridin-3-yl)oxy)pyridin-4-yl)methyl)piperidin-4-yl)methyl)carbamate]
2	10.1		CC(=O)NCC1CCN(Cc2cc(Oc3ccc(N4CCN(CCC(C)S(C)(=O)=O)CC4)nc3)nc(-c3cc(Cl)cc(Cl)c3)c2)CC1 (stereo not shown) [Example 218, N-((1-((2-(3,5-dichlorophenyl)-6-((6-(4-(3-(methylsulfonyl)butyl)piperazin-1-yl)pyridin-3-yl)oxy)pyridin-4-yl)methyl)piperidin-4-yl)methyl)acetamide]
0.398	9.8		CNC(=O)NCC1CCN(Cc2cc(Oc3ccc(N4CCN(CCC(C)S(C)(=O)=O)CC4)nc3)nc(-c3cc(Cl)cc(Cl)c3)c2)CC1 (stereo not shown) [Example 219, 1-((1-((2-(3,5-dichlorophenyl)-6-((6-(4-(3-(methylsulfonyl)butyl)piperazin-1-yl)pyridin-3-yl)oxy)pyridin-4-yl)methyl)piperidin-4-yl)methyl)-3-methylurea]
2.51		0.0631	CNC(=O)NCC1CCN(Cc2cc(Oc3cnc(N4CCN(CCC(C)S(C)(=O)=O)CC4)nc3)nc(-c3cc(Cl)cc(Cl)c3)c2)CC1 (stereo not shown) [Example 220, 1-((1-((2-(3,5-dichlorophenyl)-6-((2-(4-(3-(methylsulfonyl)butyl)piperazin-1-yl)pyrimidin-5-yl)oxy)pyridin-4-yl)methyl)piperidin-4-yl)methyl)-3-methylurea]
5.01	10.4		CNC(=O)NCC1CCN(Cc2cc(Oc3cnc(N4CCN(C5CC(C(=O)O)C5)CC4)nc3)nc(-c3cc(Cl)cc(Cl)c3)c2)CC1 (stereo not shown) [Example 221, 3-(4-(5-((6-(3,5-dichlorophenyl)-4-((4-((3-methylureido)methyl)piperidin-1-yl)methyl)pyridin-2-yl)oxy)pyrimidin-2-yl)piperazin-1-yl)cyclobutanecarboxylic acid]

The next lines start with the compound.

Compound	EC50 [1] [nM]	furin enzyme pIC50 [2]	IC50 [2] [nM]
CC(=O)NCC1CCN(Cc2cc(Oc3ccc(N4CCNC(C)(C)C4)nc3)nc(-c3cc(Cl)cc(Cl)c3)c2)CC1 [Example 197, N-((1-((2-(3,5-dichlorophenyl)-6-((6-(3,3-dimethylpiperazin-1-yl)pyridin-3-yl)oxy)pyridin-4-yl)methyl)piperidin-4-yl)methyl)acetamide]	2	9.2	
CC(=O)NCC1CCN(Cc2cc(Oc3ccc(N4CCC(N)C(C)(C)C4)nc3)nc(-c3cc(Cl)cc(Cl)c3)c2)CC1 (stereo not shown) [Example 198, N-((1-((2-((6-(4-amino-3,3-dimethylpiperidin-1-yl)pyridin-3-yl)oxy)-6-(3,5-dichlorophenyl)pyridin-4-yl)methyl)piperidin-4-yl)methyl)acetamide]	2	9.3	
CC(=O)NCC1CCN(Cc2cc(Oc3ccc(N4CCC5(CCNC5)C4)nc3)nc(-c3cc(Cl)cc(Cl)c3)c2)CC1 (stereo not shown) [Example 199, N-((1-((2-((6-(2,7-diazaspiro[4.4]nonan-2-yl)pyridin-3-yl)oxy)-6-(3,5-dichlorophenyl)pyridin-4-yl)methyl)piperidin-4-yl)methyl)acetamide]	5.01	9.2	
CC(=O)NCC1CCN(Cc2cc(Oc3ccc(N4CCN(C)CC4)nc3)nc(-c3cc(Cl)cc(Cl)c3)c2)CC1 [Example 200, N-((1-((2-(3,5-dichlorophenyl)-6-((6-(4-methylpiperazin-1-yl)pyridin-3-yl)oxy)pyridin-4-yl)methyl)piperidin-4-yl)methyl)acetamide]	0.501	9.1	
CNCc1cc(Oc2ccc(N3CC4CNCC4C3)nc2)cc(-c2cc(Cl)cc(Cl)c2)c1 (stereo not shown) [Example 201, 1-(3′,5′-dichloro-5-((6-(hexahydropyrrolo[3,4-c]pyrrol-2(1H)-yl)pyridin-3-yl)oxy)-[1,1′-biphenyl]-3-yl)-N-methylmethanamine]	20	9.4	
CNCc1cc(Oc2ccc(N3C[C@@H]4C[C@H]3CN4)nc2)cc(-c2cc(Cl)cc(Cl)c2)c1 [Example 202, 1-(5-((6-((1S,4S)-2,5-diazabicyclo[2.2.1]heptan-2-yl)pyridin-3-yl)oxy)-3′,5′-dichloro-[1,1′-biphenyl]-3-yl)-N-methylmethanamine]	39.8	8.6	
CN1C[C@@H]2C[C@H]1CN2c1ccc(Oc2cc(CN3CCC(CC(=O)O)CC3)cc(-c3cc(Cl)cc(Cl)c3)n2)cn1 [Example 203, 2-(1-((2-(3,5-dichlorophenyl)-6-((6-((1S,4S)-5-methyl-2,5-diazabicyclo[2.2.1]heptan-2-yl)pyridin-3-yl)oxy)pyridin-4-yl)methyl)piperidin-4-yl)acetic acid]	12.6	8.7	
CC(CCN1CCN(c2ncc(Oc3cc(CN4CCC(CC(=O)O)CC4)cc(-c4cc(Cl)cc(Cl)c4)n3)cn2)CC1)[S+](C)[O-] (stereo not shown) [Example 204, 2-(1-((2-(3,5-Dichlorophenyl)-6-((2-(4-(3-(methylsulfinyl)butyl)piperazin-1-yl)pyrimidin-5-yl)oxy)pyridin-4-yl)methyl)piperidin-4-yl)acetic acid]	31.6	8.7	
CC(CCN1CCN(c2ncc(Oc3cc(CN4CCC(CC(=O)O)CC4)cc(-c4cc(Cl)cc(Cl)c4)n3)cn2)CC1)S(C)(=O)=O (stereo not shown) [Example 205, 2-(1-((2-(3,5-Dichlorophenyl)-6-((2-(4-(3-(methylsulfonyl)butyl)piperazin-1-yl)pyrimidin-5-yl)oxy)pyridin-4-yl)methyl)piperidin-4-yl)acetic acid]	15.8	8.6	
CNC(=O)OCC1CCN(Cc2cc(Oc3cnc(N4CCN(C(C)CCC(=O)O)CC4)nc3)nc(-c3cc(Cl)cc(Cl)c3)c2)CC1 (stereo not shown) [Example 208]	10		0.0126
CNC(=O)OCC1CCN(Cc2cc(Oc3cnc(N4CCN(C(C)CCO)CC4)nc3)nc(-c3cc(Cl)cc(Cl)c3)c2)CC1 (stereo not shown) [Example 209, (1-((2-(3,5-dichlorophenyl)-6-((2-(4-(4-hydroxybutan-2-yl)piperazin-1-yl)pyrimidin-5-yl)oxy)pyridin-4-yl)methyl)piperidin-4-yl)methyl methylcarbamate]	2.51	9.6	
CNC(=O)OCC1CCN(Cc2cc(Oc3cnc(N4CCN(CCCS(C)(=O)=O)CC4)nc3)nc(-c3cc(Cl)cc(Cl)c3)c2)CC1 [Example 210, (1-((2-(3,5-dichlorophenyl)-6-((2-(4-(3-(methylsulfonyl)propyl)piperazin-1-yl)pyrimidin-5-yl)oxy)pyridin-4-yl)methyl)piperidin-4-yl)methyl methylcarbamate]	3.98	8.7	
CNC(=O)OCC1CCN(Cc2cc(Oc3cnc(N4CCN(C5CC(C(=O)O)C5)CC4)nc3)nc(-c3cc(Cl)cc(Cl)c3)c2)CC1 (stereo not shown) [Example 211, 3-(4-(5-((6-(3,5-dichlorophenyl)-4-((4-(((methylcarbamoyl)oxy)methyl)piperidin-1-yl)methyl)pyridin-2-yl)oxy)pyrimidin-2-yl)piperazin-1-yl)cyclobutanecarboxylic acid]	25.1	10.1	
CN1CCN(c2ccc(Oc3cc(CN4CCC(CC(=O)O)CC4)cc(-c4cc(Cl)cc(Cl)c4)n3)cn2)CC1 [Example 212, 2-(1-((2-(3,5-dichlorophenyl)-6-((6-(4-methylpiperazin-1-yl)pyridin-3-yl)oxy)pyridin-4-yl)methyl)piperidin-4-yl)acetic acid]	31.6	9	
CC(CC1CCN(Cc2cc(Oc3ccc(N4CCN(C)CC4)nc3)nc(-c3cc(Cl)cc(Cl)c3)c2)CC1)C(=O)O (stereo not shown) [Example 213, 3-(1-((2-(3,5-dichlorophenyl)-6-((6-(4-methylpiperazin-1-yl)pyridin-3-yl)oxy)pyridin-4-yl)methyl)piperidin-4-yl)-2-methylpropanoic acid]	25.1	8.9	
